According to publication doi:10.64898/2025.12.18.695077v1, “Stereospecific GPG acylation by CLN8 drives BMP biosynthesis and its loss leads to Batten disease” (biorxiv, 2025):

Legend:
[1] = target: T1, CLN8 (tag-cleaved, codon-optimised human CLN8 from yeast) (Homo sapiens, UniProt Q9UBY8); experiment: cryo-EM structure, […] A; format: binding; details: covalent acyl-enzyme intermediate at H138 proposed (continuous density not resolved), CoA at the dimer interface, incubated with 100 uM
T1 construct: full-length, C-terminal 6xHis tag cut with Factor Xa; expressed in S. cerevisiae W303.1B; homodimer in LMNG; residues 1-15 and 261-286 disordered

[2] = target: T1, CLN8 (tag-cleaved, codon-optimised human CLN8 from yeast); experiment: cryo-EM structure, […] A; format: binding; details: co-purified; transmembrane pocket of each monomer at the dimer interface, not the active site

With `CC/C=C\C/C=C\C/C=C\C/C=C\C/C=C\C/C=C\CCC(=O)SCCNC(=O)CCNC(=O)[C@H](O)C(C)(C)COP(=O)(O)OP(=O)(O)OC[C@H]1O[C@@H](n2cnc3c(N)ncnc32)[C@H](O)[C@@H]1OP(=O)(O)O` [C22:6-CoA] the “cryo-EM structure, 2.7 A” value ([1]; C22:6 chain modelled in the active site) was “we determined cryo-EM structures of CLN8 prepared in the presence of either C18:1-CoA or C22:6-CoA”.

With `CCCCCCCC/C=C\CCCCCCCC(=O)SCCNC(=O)CCNC(=O)[C@H](O)C(C)(C)COP(=O)(O)OP(=O)(O)OC[C@H]1O[C@@H](n2cnc3c(N)ncnc32)[C@H](O)[C@@H]1OP(=O)(O)O` [C18:1-CoA] the “cryo-EM structure, 2.7 A” value ([1]; oleoyl chain modelled in the active site) was “we determined cryo-EM structures of CLN8 prepared in the presence of either C18:1-CoA or C22:6-CoA”.

`CC(C)(COP(=O)(O)OP(=O)(O)OC[C@H]1O[C@@H](n2cnc3c(N)ncnc32)[C@H](O)[C@@H]1OP(=O)(O)O)[C@@H](O)C(=O)NCCC(=O)NCCS` [CoA] was tested, and the “cryo-EM structure, 3.65 A” value [2] was “we observed two coenzyme A (CoA) molecules bound in pockets located within the transmembrane region”.
